Results published in PubChem BioAssay AID248 (DTP/NCI, 2004).
Toxic doses and inconclusive results are not listed. Cut-off read from the data, not from the text of the source: active = T/C of 150% or more; inactive = T/C below 125%.

Tested on: L1210 leukemia ip in BDF1 mice, survival T/C
Experiment: NCI In Vivo Anticancer Drug Screen. Data for tumor model L1210 Leukemia (intraperitoneal) in B6D2F1 (BDF1) mice
Details: endpoint: mean survival time, higher = longer survival
Outline: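 Value reflects the ratio of survival in compound-treated mice to survival in vehicle-treated controls, with both groups carrying the same transplanted tumor.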

[1] = dose: 100.0 mg/kg/injection, schedule: Q04DX003 (ip), vehicle: Klucel (hydroxypropylcellulose) (HPC)
[2] = dose: 400.0 mg/kg/injection, schedule: Q04DX003 (ip), vehicle: Klucel (hydroxypropylcellulose) (HPC)
[3] = dose: 25.0 mg/kg/injection, schedule: Q01DX009 (ip), vehicle: saline
[4] = dose: 50.0 mg/kg/injection, schedule: Q01DX009 (ip), vehicle: saline
[5] = dose: 100.0 mg/kg/injection, schedule: Q04DX003 (ip), vehicle: saline
[6] = dose: 100.0 mg/kg/injection, schedule: Q01DX009 (ip), vehicle: saline
[7] = dose: 200.0 mg/kg/injection, schedule: Q01DX009 (ip), vehicle: saline
[8] = dose: 200.0 mg/kg/injection, schedule: Q04DX003 (ip), vehicle: saline
[9] = dose: 400.0 mg/kg/injection, schedule: Q04DX003 (ip), vehicle: saline
[10] = dose: 100.0 mg/kg/injection, schedule: Q01DX009 (ip), vehicle: Klucel (hydroxypropylcellulose) (HPC)
[11] = dose: 200.0 mg/kg/injection, schedule: Q01DX009 (ip), vehicle: Klucel (hydroxypropylcellulose) (HPC)
[12] = dose: 400.0 mg/kg/injection, schedule: Q01DX009 (ip), vehicle: Klucel (hydroxypropylcellulose) (HPC)

Measured: T/C

Clc1c(C(Cl)(Cl)Cl)nc2ccccc2c1Cl
inactive: dose: 12.5 mg/kg/injection, schedule: Q01DX009 (ip), vehicle: Klucel (hydroxypropylcellulose) (HPC) 115 % of control | dose: 25.0 mg/kg/injection, schedule: Q01DX009 (ip), vehicle: Klucel (hydroxypropylcellulose) (HPC) 107 % of control | dose: 50.0 mg/kg/injection, schedule: Q01DX009 (ip), vehicle: Klucel (hydroxypropylcellulose) (HPC) 86 % of control

COc1cc(OC(C)=O)c(OC(C)=O)cc1OC(C)=O
inactive: dose: 100.0 mg/kg/injection, schedule: Q01DX009 (ip), vehicle: saline with Tween-80 98 % of control | dose: 200.0 mg/kg/injection, schedule: Q01DX009 (ip), vehicle: saline with Tween-80 96 % of control | dose: 400.0 mg/kg/injection, schedule: Q01DX009 (ip), vehicle: saline with Tween-80 100 % of control

O=C(/C=C(\CN1CCCCC1)c1ccccc1)c1ccccc1
inactive: [1] 96 % of control | [2] 96 % of control

NCCC(=O)OC1CCCc2c(O)c3c(c(O)c21)C(=O)c1ccccc1C3=O (stereo unspecified)
inactive: dose: 12.5 mg/kg/injection, schedule: Q04DX003 (ip), vehicle: saline 93 % of control | [3] 93 % of control | dose: 25.0 mg/kg/injection, schedule: Q04DX003 (ip), vehicle: saline 95 % of control | [4] 97 % of control | dose: 50.0 mg/kg/injection, schedule: Q04DX003 (ip), vehicle: saline 98 % of control | [5] 102 % of control

COC(=O)CNC(=O)C(Cc1ccc(OCc2ccccc2)cc1)NC(=O)OC(C)(C)C (stereo unspecified)
inactive: [6] 98 % of control | [5] 93 % of control | [7] 106 % of control | [8] 97 % of control | dose: 400.0 mg/kg/injection, schedule: Q01DX009 (ip), vehicle: saline 96 % of control | [9] 97 % of control

CCCCCCN(CCCCCC)CC(=O)Nc1ccc(S(=O)(=O)c2ccc(NC(=O)CN(CCCCCC)CCCCCC)cc2)cc1
inactive: dose: 25.0 mg/kg/injection, schedule: Q01DX001 (ip), vehicle: carboxymethylcellulose (CMC) 114 % of control | dose: 50.0 mg/kg/injection, schedule: Q01DX001 (ip), vehicle: carboxymethylcellulose (CMC) 97 % of control

C#CCOP(=O)(OCC)OCC
inactive: [6] 105 % of control | [7] 103 % of control

NC(=S)Nc1ccc(C23CCC(CC2)CC3)cc1
inactive: [4] 105 % of control | [6] 105 % of control | [7] 102 % of control

Cc1noc(C)c1CC1(c2ccccc2)CCCCC1=O (stereo unspecified)
inactive: [10] 93 % of control | [11] 95 % of control | [12] 93 % of control

NC(N)=N/N=C\c1ccccc1/C=N/N=C(N)N
inactive: dose: 15.0 mg/kg/injection, schedule: Q01DX Z (ip), vehicle: saline 111 % of control | dose: 15.0 mg/kg/injection, schedule: Q01DX Z (oral), vehicle: saline 116 % of control | dose: 30.0 mg/kg/injection, schedule: Q01DX Z (ip), vehicle: saline 110 % of control | dose: 30.0 mg/kg/injection, schedule: Q01DX Z (oral), vehicle: saline 111 % of control | dose: 60.0 mg/kg/injection, schedule: Q01DX Z (oral), vehicle: saline 102 % of control | dose: 120.0 mg/kg/injection, schedule: Q01DX Z (oral), vehicle: saline 111 % of control

O=C(Nc1cccc(C2=NCCN2)c1)c1cc(Cl)cc(C(=O)Nc2cccc(C3=NCCN3)c2)c1
inactive: dose: 7.0 mg/kg/injection, schedule: Q01DX Z (ip), vehicle: methylcellulose (MC) 92 % of control | dose: 11.0 mg/kg/injection, schedule: Q01DX Z (ip), vehicle: methylcellulose (MC) 100 % of control | dose: 16.0 mg/kg/injection, schedule: Q01DX Z (ip), vehicle: methylcellulose (MC) 87 % of control | dose: 25.0 mg/kg/injection, schedule: Q01DX Z (ip), vehicle: methylcellulose (MC) 97 % of control

CN(C)Cc1ncccc1OC(=O)N(c1ccccc1)c1ccccc1
inactive: dose: 12.5 mg/kg/injection, schedule: Q01DX009 (ip), vehicle: saline 97 % of control | [3] 97 % of control | [4] 100 % of control

Nc1nc(NCCCc2ccccc2)cc(=O)[nH]1
inactive: dose: 25.0 mg/kg/injection, schedule: Q04DX003 (ip), vehicle: saline with Tween-80 98 % of control | dose: 50.0 mg/kg/injection, schedule: Q04DX003 (ip), vehicle: saline with Tween-80 92 % of control

Nc1cccc(CC(=O)Nc2ccccc2)c1
inactive: dose: 100.0 mg/kg/injection, schedule: Q01DX009 (ip), vehicle: alcohol 93 % of control | dose: 100.0 mg/kg/injection, schedule: Q04DX003 (ip), vehicle: alcohol 97 % of control | dose: 200.0 mg/kg/injection, schedule: Q01DX009 (ip), vehicle: alcohol 105 % of control | dose: 200.0 mg/kg/injection, schedule: Q04DX003 (ip), vehicle: alcohol 100 % of control | dose: 400.0 mg/kg/injection, schedule: Q01DX009 (ip), vehicle: alcohol 103 % of control | dose: 400.0 mg/kg/injection, schedule: Q04DX003 (ip), vehicle: alcohol 100 % of control

CN(C(=O)COc1ccc([N+](=O)[O-])cc1Cl)c1ccc(S(=O)(=O)F)cc1
inactive: [5] 104 % of control | [8] 95 % of control | [9] 96 % of control

CCOc1ccc(NC(=O)Nc2ccccc2OC)cc1
inactive: [10] 97 % of control | [1] 94 % of control | [11] 95 % of control | dose: 200.0 mg/kg/injection, schedule: Q04DX003 (ip), vehicle: Klucel (hydroxypropylcellulose) (HPC) 92 % of control | [12] 101 % of control | [2] 97 % of control

Nc1ccc(P(=O)(O)c2ccc(N)cc2)cc1
inactive: dose: 75.0 mg/kg/injection, schedule: Q01DX001 (ip), vehicle: carboxymethylcellulose (CMC) 94 % of control | dose: 150.0 mg/kg/injection, schedule: Q01DX001 (ip), vehicle: carboxymethylcellulose (CMC) 97 % of control | dose: 300.0 mg/kg/injection, schedule: Q01DX001 (ip), vehicle: carboxymethylcellulose (CMC) 103 % of control

OCCCNCc1ccccc1
inactive: [5] 94 % of control | [8] 103 % of control | [9] 97 % of control

O=C1Nc2ccccc2C1O (stereo unspecified)
inactive: dose: 100.0 mg/kg/injection, schedule: Q01DX001 (ip), vehicle: saline 101 % of control | dose: 200.0 mg/kg/injection, schedule: Q01DX001 (ip), vehicle: saline 101 % of control | dose: 400.0 mg/kg/injection, schedule: Q01DX001 (ip), vehicle: saline 108 % of control

CCOC(=O)N1CCC2(CC1)CC(=O)N(N1CCCCCC1)C2=O
inactive: dose: 100.0 mg/kg/injection, schedule: Q04DX002 (ip), vehicle: Klucel (hydroxypropylcellulose) (HPC) 93 % of control | dose: 200.0 mg/kg/injection, schedule: Q04DX002 (ip), vehicle: Klucel (hydroxypropylcellulose) (HPC) 93 % of control
